# Source: US10092575B2, “Substituted thiophene- and furan-fused azolopyrimidine-5-(6H)-one compounds” (DART NEUROSCIENCE (CAYMAN) LTD., priority 2012, dated 2018)
# Key:
# [1] = tested on: NS1 cells; experiment: Neurite outgrowth (NOG) assay; type: cell-based
# Experimental: Neuroscreen 1 (NS1) Cells (Cellomics Inc.) were cultured on collagen type I coated 75 cm2 plastic flasks (Biocoat, Becton Dickinson) in a humidified incubator at 37° C. in 5% CO2. Cells were cultured in RPMI complete cell culture medium (Cambrex) supplemented with 10% heat-inactivated horse serum (Invitrogen), 5% heat-inactivated fetal bovine serum (Cellgro), and 2 mM L-glutamine (Cambrex). For expansion, the cells were trypsinized and split at 80% confluence. Cell culture media was changed every 2 to 3 days.
# NS1 cells were harvested and counted using a Coulter counter (Becton Dickinson Coulter Z1). Cells were seeded in 96-well collagen I coated plates at a density of 2000 cells per well in volume of […]. RPMI media was supplemented with 200 ng/ml nerve growth factor (NGF, Sigma). NS1 cells were incubated for 72 hours to allow differentiation to a neuronal phenotype. […]
# Antibody-stained 96-well plates were stored at 4° C. in the dark until scanning. […] The neurite outgrowth assay is based on two channels to scanning: (1) Channel 1, which detects the Hoechst Dye and is used by the software to identify cells and for automated focusing; and (2) Channel 2, which detects the FITC fluorescence of the secondary antibody and is used by the software to calculate all data generated in reference to neurites. […]
# [2] = target: human PDE1b enzyme (Homo sapiens (Human), UniProt Q01064); experiment: PDE1b inhibitory assay (IMAP TR-FRET); conditions: for PDE1b (pEC50): negative log of half-maximal molar inhibitory concentration, 200 nM FAM-cAMP, reported as ranges
# Experimental: PDE1b inhibition was determined by an IMAP TR-FRET assay. The IMAP TR-FRET PDE assay was optimized for concentration of enzyme, Calmodulin, cAMP or cGMP substrate, DMSO tolerance, and incubation time.
# After a brief centrifugation, the plates were incubated for 30 minutes at room temperature. The assay was terminated by adding 5 μL IMAP binding reagent/Tb complex (Molecular Devices, Sunnyvale, Calif.) to each well.
# Plates were incubated 1 hour at room temperature and read on a Viewlux multimode plate reader (Perkin Elmer). The instrument was set to excite using the DUG11 filter and measure using 490/10 nm and 520/10 nm filters. Ratios of acceptor and donor were then calculated.
# For EC50 calculations, the values of % efficacy versus a series of compound concentrations were then plotted using non-linear regression analysis of sigmoidal dose-response curves generated with the equation Y=B+(T−B)/1+10((Log EC50−X)×Hill Slope), where Y=percent activity, B=minimum percent efficacy, T=maximum percent efficacy, X=logarithm of compound and Hill Slope=slope factor or Hill coefficient. The EC50 value was determined by the concentration causing a half-maximal percent efficacy.
SMILES,PDE1b (pEC50) [2],also measured
COc1ccc(C2CNC(=O)C2)cc1OC1CCCC1 (centres unmarked) [Rolipram],,"neurite length and branching / neurite outgrowth ([1]; alone, without forskolin): not affected; neurite length and branching / neurite outgrowth ([1]; in combination with forskolin): enhanced in dose-dependent manner"
"COc1ccc(Cn2c(=O)n3ncnc3c3c4c(sc32)CN(Cc2ncccn2)CC4)c(F)c1 [Example 137, 6-(2-Fluoro-4-methoxybenzyl)-9-(pyrimidin-2-ylmethyl)-8,9,10,11-tetrahydropyrido[4′,3′:4,5]thieno[3,2-e][1,2,4]triazolo[1,5-c]pyrimidin-5 (6H)-one]",>7,
"COc1ccc(Cn2c(=O)n3ncnc3c3c(CNCC4CCOCC4)csc32)cc1 [Example 203, 6-(4-Methoxybenzyl)-9-((((tetrahydro-2H-pyran-4-yl)methyl)amino)methyl)thieno[3,2-e][1,2,4]triazolo[1,5-c]pyrimidin-5(6H)-one]",>7,
"O=c1n(Cc2cccc(Cl)c2)c2sc(Cc3ccccc3)cc2c2ncnn12 [Example 9, 8-Benzyl-6-(3-chlorobenzyl)thieno[3,2-e][1,2,4]triazolo[1,5-c]pyrimidin-5(6H)-one]",,EC50 [2]: 100 to 1000 nM
"COc1ccc(Cn2c(=O)n3ncnc3c3c4c(sc32)CN(CC2CCOCC2)CCC4)cc1 [Example 147, 6-(4-Methoxybenzyl)-9-((tetrahydro-2H-pyran-4-yl)methyl)-6,8,9,10,11,12-hexahydro-5H-[1,2,4]triazolo[1″,5″:1′,6′]pyrimido[5′,4′:4,5]thieno[2,3-c]azepin-5-one]",>7,
"COc1ccc(Cn2c(=O)n3ncnc3c3c(C)c(CN4CCOCC4C)sc32)cc1 (centres unmarked) [Example 71, 6-(4-Methoxybenzyl)-9-methyl-8-((3-methylmorpholino)methyl)thieno[3,2-e][1,2,4]triazolo[1,5-c]pyrimidin-5(6H)-one]",>7,
"COc1ccc(Cn2c(=O)n3ncnc3c3c4c(sc32)CN(CC2CCOCC2)CC4(F)F)c(F)c1 [Example 156, 11,11-Difluoro-6-(2-fluoro-4-methoxybenzyl)-9-((tetrahydro-2H-pyran-4-yl)methyl)-8,9,10,11-tetrahydropyrido[4′,3′:4,5]thieno[3,2-e][1,2,4]triazolo[1,5-c]pyrimidin-5(6H)-one]",>7,
